In US20070009444A1, “Method for preparing powder exhibiting low susceptibility to electrification” (priority 2003, published 2007):

Experiments:
Type in all cases: physicochemical
[1] = Measurement of charge amount (Espartoanalyzer, sample mixed with iron powder 1:9, 500 V); details: for Average of charge: average of two measurements
Excerpt: In the present specification, the term “lowly-charged powder” means powder in which negative charge of surface potential is reduced (powder unsusceptible to negative charge) and encompasses positively charged powder. Concretely, it means powder having an average electric charge, measured with a particle charge distribution measuring device (for example, particle charge distribution measuring device using Laser Doppler speed meter), of not less than −2 q/m (namely, electric charge is negative and its absolute value is not more than 2, or electric charge is zero or positive value), preferably of not less than −1 q/m. The average electric charge is preferably not more than +5, more preferably not more than +3, and most preferably not more than +1. Measurement of electric charge may be conducted according to a manual of the device, and a condition and a measuring device are not particularly limited. For instance, after mixing a compound to be measured and iron powder in a ratio of about 1:9, about 1 g of mixture is collected. […]
400 mg of the acetaminophen powder containing PEG4000 (Acetaminophen:PEG=32:1, PEG adding ratio 0.03) obtained in Example 1 and 3600 mg of iron powder (TEFV-200/300 (registered trademark, Powdertech) as a carrier were filled into a glass vessel, and the mixture was mixed by hands for ten seconds. About 1 g of thus-obtained sample (true density of the particles: 1.20 g/cm^3) were collected and the charge amount was measured using Espartoanalyzer (Hosokawa Micron company). […]
Charge amount of the acetaminophen powder (without adding PEG) was measured by the same method as described above as a control (numbers of particles: 500).
Charge amount of each sample was measured twice and the average of the results are shown below.
Charge amount of the following samples were measured by the same method as Experiment 1. • i) 300 mg of Compound (I-1) […]

[2] = Measurement of bulk density (3 cc vessel, tapped three times)
Excerpt: As an index for charge suppression of the obtained powder, bulk. density of the powder may be examined rather than measuring surface potential of the powder. […] When the bulk density is not less than 0.25 g/cc, preferably 0.28 g/cc, suction by a machine and transfer from a filling machine to a filling vessel may be conducted favorably, and a certain operability must be secured. The bulk density is a value determined in the manner as described below. First, 3 cc of sample to be measured is put into a vessel, and then the vessel is lightly tapped several to 10 times, preferably about 3 times. When the bulk is reduced, powder is supplemented, and this operation is repeated. At the time when the bulk no longer changes, a sample weight per 1 cc is determined. The bulk density of lowly-charged powder determined in the method of the present invention is 1.5 times or more, preferably 1.6 times or more, and further preferably 1.8 times or more the “bulk density of highly-charged compound”, “bulk density of powder obtained by drying a liquid composition containing a highly-charged compound and an additive other than PEG” or “bulk density of powder obtained by drying a liquid composition containing a pharmaceutically active compound”.
The bulk density of the acetaminophen powder containing PEG4000 (PEG adding ratio 0.03) obtained in Example 1 and the Compound (I-1) powder containing PEG4000 obtained in Example 2 were measured.
The powder was added to a vessel to reach the scale of 3 cc in a dry box and tapped three times. When the bulk is reduced, powder is added to the vessel to reach the scale of 3 cc and the same operation was repeated.
When the bulk no longer changed at 3 cc, addition of the powder was stopped and the bulk density (g/cc) was measured at that time.
Bulk densities of the acetaminophen powder (without adding PEG) and the Compound (I-1) powder (without adding PEG) were measured by the same method as controls.

[3] = Observation of spray dried powder (transit performance, coloring, operability)
Method: Acetaminophen and PEG4000 were mixed at the following ratio: acetaminophen-PEG4000=2.8 g-701 mg (Mixed ratio 4:1, PEG adding ratio 0.25 (weight of PEG (mg) relative to 1 mg of pharmaceutical active compound)), acetaminophen-PEG4000=2.8 g-351 mg (Mixed ratio 8:1, PEG adding ratio 0.125), acetaminophen-PEG4000=2.8 g-176 mg (Mixed ratio 16:1, PEG adding ratio 0.06), and acetaminophen-PEG4000=14 g-437 mg (Mixed ratio 32:1, PEG adding ratio 0.03). The final concentration of acetaminophen was adjusted to 1.4% by weight by adding suitable amount of water and the solution was spray dried under the conditions mentioned below.
FIG. 1 is a photograph of the acetaminophen powder (PEG adding ratio 0.03) and FIG. 2 is a photograph of the acetaminophen powder(without adding PEG). • Spray drying condition • Spray dryer: Spray dryer SD-1000 (Tokyo Rikakikai Co., Ltd.) • Speed of pump: scale 30 (about 6 mL/min) • IN-let temperature: 170° C. • Out-let temperature: 95 to 100° C. • Drying air volume: 0.60 m^3/min • Spray drying pressure: 70 kPa
Compound (I-1) powder was manufactured by a similar manner to Example 2 except that PEG400 (111 mg) (PEG adding ratio 0.37) was used instead of PEG4000 and the final concentration of Compound (I-1) in the solution was adjusted to 19% by weight. […]

[4] = Measurement of dissolution time (powder in 10 ml distilled water for injection, vial shaken)
Method: The dissolving time is determined by shaking a vessel containing 300 mg of sample to be measured and 10 mL of water. In the case of pharmaceuticals, the sample to be measured should contain 300 mg of pharmaceutically active compound, and may contain a pharmaceutical additive. The shaking manner and time are not particularly limited. Concretely, measurement may be conducted according to the method described in Test example 3 described later.
The Compound (I-1) powder containing PEG (about 300 mg) which was obtained in Example 2 or 3 was filled in a vial (the capacity to the shoulder is 20 ml). After 10 ml of distilled water for injection was added to the vial, the vial was shaken 20 times (arm length: about 20 centimeters, the amplitude: […] and shaking speed: 20 times/ten seconds), and the dissolution time was measured.
(§1) 300 mg of Compound (I-l) and 150 mg of D-mannitol were mixed with suitable amount of sodium hydroxide. The solutions having various concentration (pH 9.5 to 9.75) were prepared. Thus-obtained solutions were spray dried under the same conditions as Example 1. The dissolution time of the obtained powder was measured by the same method as the above-mentioned Experiment 3. The particle diameter was measured under the following conditions. • Measuring condition of dry powder tester • Dry powder tester: SK Laser micron sizer LMS-30 (SEISHIN ENTERPRISE Co., Ltd.) • Carrier fluid: compressed air […] • Sample: about 20 to 30 mg

[5] = Particle diameter by dry powder tester (SK Laser micron sizer LMS-30); details: no PEG, with D-mannitol and NaOH, spray dried
Method: The method of measuring “average particle size” used herein is not particularly limited, and measurement may be conducted in accordance with a manual of the particle size meter to be used. For example, about 20 to 30 mg of powder to be measured for its diameter is taken, and placed in the particle size meter for conducting measurement.
as §1

Structure (SMILES) | Average of charge ([1]; acetaminophen powder spray dried with PEG4000, PEG adding ratio 0.03) [q/m] | Average of charge ([1]; acetaminophen powder without adding PEG, ratio 0) [q/m] | Bulk density ([2]; solution 1.4% by weight, PEG4000, PEG adding ratio 0.03, spray dried) [g/cc] | Bulk density ([2]; solution 1.4% by weight, without adding PEG, spray dried) [g/cc] | Coloring of powder ([3]; spray dried solution containing only acetaminophen, without adding PEG (control)) | Coloring of powder ([3]; spray dried with PEG4000, PEG adding ratio 0.25, 0.125, 0.06, 0.03 (all samples)) | Dissolution time ([4]; no PEG, with D-mannitol and NaOH, solution 5% by weight (pH 9.5), spray dried) [s] | Dissolution time ([4]; no PEG, with D-mannitol and NaOH, solution 10% by weight, spray dried) [s] | Dissolution time ([4]; no PEG, with D-mannitol and NaOH, solution 19% by weight (pH 9.75), spray dried) | Dissolution time ([4]; solution before drying 5% by weight, PEG4000, PEG adding ratio 0.37) [s] | Dissolution time ([4]; solution before drying 5% by weight, non-additive, PEG adding ratio 0) [s] | Dissolution time ([4]; solution before drying 19% by weight, PEG400, PEG adding ratio 0.37) [s] | Electric charge ([1]; Experiment 2; i) non-additive, 3000 particles; ii) PEG4000 + D-mannitol, PEG adding ratio 0.4, 505 particles) [q/m] | Bulk density ([2]; solution 18% by weight, PEG4000, PEG adding ratio 0.37, spray dried) [g/cc] | Bulk density ([2]; solution 18% by weight, without adding PEG, spray dried) [g/cc] | Particle diameter ([5]; solution 5% by weight (pH 9.5)) [μm] | Particle diameter ([5]; solution 10% by weight) [μm] | Particle diameter ([5]; solution 19% by weight (pH 9.75)) [μm]
CC(=O)Nc1ccc(O)cc1 [Acetaminophen, acetaminophen] | −1.43 | −12.86 | 0.659 | 0.398 | a little coloring | non-coloring |  |  |  |  |  |  |  |  |  |  |  | 
CC1(C)CC[C@]2(C(=O)[O-])CC[C@]3(COC(=O)/C=C/c4cc(O)ccc4NC(=O)/C=C/C(=O)[O-])C(=CC[C@@H]4[C@@]5(C)CCC(=O)C(C)(C)[C@@H]5CC[C@]43C)[C@@H]2C1.[Na+].[Na+] [Compound (I-1)] |  |  |  |  |  |  | 40 | 10 | under 20 second | 10 | 40 | 10 | −2.57 | 0.395 | 0.206 | 8.9 | 10.1 | 11.6
